# According to patent US8450308B2 (Vitae Pharmaceuticals, Inc., priority 2008, dated 2013):
# Target: T1, truncated human beta-secretase (residues 1-458, His6-tagged at the C-terminus) (Homo sapiens, UniProt P56817)
# T1 construct: truncated human beta-secretase (residues 1-458, His6-tagged at the C-terminus); His6 (C); made in house; host or cells: insect cells D. melanogaster S2 (baculovirus expression system (so in the source))
# Assay: BACE fluorescence quench assay
# Assay type: biochemical
# Conditions: in vitro enzyme activity, BACE fluorescence assay, pH 4.5; read-out: IC50
# T1 sequence (P56817 22-458): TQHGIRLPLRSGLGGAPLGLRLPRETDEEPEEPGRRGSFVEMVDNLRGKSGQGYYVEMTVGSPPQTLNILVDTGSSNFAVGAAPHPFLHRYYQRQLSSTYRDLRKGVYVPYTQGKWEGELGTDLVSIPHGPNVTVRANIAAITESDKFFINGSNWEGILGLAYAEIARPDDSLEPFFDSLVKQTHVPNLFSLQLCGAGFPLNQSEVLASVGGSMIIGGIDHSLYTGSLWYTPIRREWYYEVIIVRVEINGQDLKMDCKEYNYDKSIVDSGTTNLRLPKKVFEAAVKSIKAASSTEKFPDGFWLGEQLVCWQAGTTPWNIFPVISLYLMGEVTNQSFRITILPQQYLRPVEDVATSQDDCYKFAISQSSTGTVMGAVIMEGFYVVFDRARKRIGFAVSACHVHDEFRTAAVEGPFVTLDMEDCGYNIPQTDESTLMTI
row,SMILES,IC50
1,CN1OC2(CC(C3CCCOC3)Oc3ccc(-c4cccc(Cl)c4)cc32)N=C1N (stereo not drawn) [Compound 87],100 to 500 nM
2,"CN1OC2(CC(C3CCOCC3)Oc3ccc(-c4cccc(C#N)c4)cc32)N=C1N (stereo not drawn) [Compound 88, 3-(3′-amino-2′-methyl-2-(tetrahydro-2H-pyran-4-yl)-2′H-spiro[chroman-4,5′-[1,2,4]-oxadiazole]-6-yl)benzonitrile]",100 to 500 nM
3,CN1OC2(C[C@@H](C3CCCOC3)Oc3ccc(-c4cccnc4F)cc32)N=C1N (stereo partly drawn) [Compound 89a],100 to 500 nM
4,CN1OC2(C[C@H](C3CCCOC3)Oc3ccc(-c4cccnc4F)cc32)N=C1N (stereo partly drawn) [Compound 89b],1000 to 5000 nM
5,"CN1OC2(CC(C3CCCOC3)Oc3ccc(-c4cc(F)cc(F)c4)cc32)N=C1N (stereo not drawn) [Compound 90, 6-(3,5-difluorophenyl)-2′-methyl-2-(tetrahydro-2H-pyran-3-yl)-2′H-spiro[chroman-4,5′-[1,2,4]oxadiazol]-3′-amine]",100 to 500 nM
6,COc1ccc(F)c(-c2ccc3c(c2)C2(CC(C4CCCOC4)O3)N=C(N)N(C)O2)c1 (stereo not drawn) [Compound 91],100 to 500 nM
7,COc1cccc(-c2ccc3c(c2)C2(CC(C4CCCOC4)O3)N=C(N)N(C)O2)c1F (stereo not drawn) [Compound 92],100 to 500 nM
8,"CN1OC2(CC(C3CCCOC3)Oc3ccc(-c4cccc(F)c4)cc32)N=C1N (stereo not drawn) [Compound 93, 6-(3-fluorophenyl)-2′-methyl-2-(tetrahydro-2H-pyran-3-yl)-2′H-spiro[chroman-4,5′-[1,2,4]oxadiazol]-3′-amine]",500 to 1000 nM
9,CN1OC2(CC(C3CCOC3)Oc3ccc(-c4cccc(C#N)c4)cc32)N=C1N (stereo not drawn) [Compound 94],500 to 1000 nM
10,"CN1OC2(CC(c3cccnc3)Oc3ccc(-c4cccc(C#N)c4)cc32)N=C1N (stereo not drawn) [Compound 95, 3-(3′-amino-2′-methyl-2-(pyridine-3-yl)-2′H-spiro[chroman-4,5′-[1,2,4]-oxadiazole]-6-yl)benzonitrile]",1000 to 5000 nM
11,"CN1OC2(CC(c3ccccc3)Oc3ccc(-c4cccc(C#N)c4)cc32)N=C1N (stereo not drawn) [Compound 96, 3-(3′-amino-2′-methyl-2-phenyl-2′H-spiro[chroman-4,5′-[1,2,4]oxadiazole]-6-yl)benzonitrile]",1000 to 5000 nM
12,"CN1OC2(CCOc3ccc(-c4cccc(C#N)c4)cc32)N=C1N (stereo not drawn) [Compound 97, 3-(3′-Amino-2′-methyl-2′H-spiro[chroman-4,5′-[1,2,4]oxadiazole]-6-yl)benzonitrile]",1000 to 5000 nM
13,CN1OC2(CC(C3CCCOC3)Oc3ccc(-c4cncnc4)cc32)N=C1N (stereo not drawn) [Compound 98],1000 to 5000 nM
14,CN1OC2(CC(C3CCCC3)Oc3ccc(-c4cccc(C#N)c4)cc32)N=C1N (stereo not drawn) [Compound 99],1000 to 5000 nM
15,"CN1OC2(CC(CO)(CO)Oc3ccc(-c4cccc(C#N)c4)cc32)N=C1N (stereo not drawn) [Compound 100, 3-(2,2-bis(hydroxymethyl)-3′-imino-2′-methylspiro[chroman-4,5′-[1,2,4]oxadiazolidine]-6-yl)benzonitrile]",1000 to 5000 nM
16,"CC(C)c1cccc(-c2ccc3c(c2)C2(CC(C4CCCOC4)O3)N=C(N)N(C)O2)c1 (stereo not drawn) [Compound 101, 6-(3-isopropylphenyl)-2′-methyl-2-(tetrahydro-2H-pyran-3-yl)-2′H-spiro[chroman-4,5′-[1,2,4]oxadiazol]-3′-amine]",1000 to 5000 nM
17,"CN1OC2(CC(c3ccccc3)Oc3ccc(-c4cccnc4)cc32)N=C1N (stereo not drawn) [Compound 102, 2′-methyl-2-phenyl-6-(pyridin-3-yl)-2′H-spiro[chroman-4,5′-[1,2,4]oxadiazol]-3′-amine]",1000 to 5000 nM
18,"CN1OC2(CC(c3ccccc3)Oc3ccc(-c4ccc(F)c(C#N)c4)cc32)N=C1N (stereo not drawn) [Compound 103, 5-(3′-amino-2′-methyl-2-phenyl-2′H-spiro(chroman-4,5′-(1,2,4)oxadiazole)-6-yl)-2-fluorobenzonitrile]",5000 to 10000 nM
19,"CN1OC2(CC(c3ccccc3)Oc3cc(F)c(-c4cccnc4F)cc32)N=C1N (stereo not drawn) [Compound 104, 7-fluoro-6-(2-fluoropyridin-3-yl)-2′-methyl-2-phenyl-2′H-spiro[chroman-4,5′-[1,2,4]oxadiazol]-3′-amine]",5000 to 10000 nM

row,SMILES,IC50
1,"CN1OC2(CC(c3ccncc3)Oc3ccc(-c4cccc(C#N)c4)cc32)N=C1N (stereo not drawn) [Compound 105, 3-(3′-amino-2′-methyl-2-(pyridin-4-yl)-2′H-spiro[chroman-4,5′-[1,2,4]oxadiazole]-6-yl)benzonitrile]",5000 to 10000 nM
2,"CN1OC2(CC(c3ccccn3)Oc3ccc(-c4cccc(C#N)c4)cc32)N=C1N (stereo not drawn) [Compound 106, 3-(3′-amino-2′-methyl-2-(pyridin-2-yl)-2′H-spiro[chroman-4,5′-[1,2,4]oxadiazole]-6-yl)benzonitrile]",5000 to 10000 nM
3,"CN1OC2(CC(c3ccc(OC(F)(F)F)cc3)Oc3ccc(-c4cccc(C#N)c4)cc32)N=C1N (stereo not drawn) [Compound 107, 3-(3′-amino-2′-methyl-2-(4-(trifluoromethoxy)phenyl)-2′H-spiro[chroman-4,5′-[1,2,4]oxadiazole]-6-yl)benzonitrile]",10000 to 50000 nM
4,"CN1OC2(CC(c3ccccc3)Oc3ccc(Oc4ccccc4)cc32)N=C1N (stereo not drawn) [Compound 108, 2′-methyl-6-phenoxy-2-phenyl-2′H-spiro[chroman-4,5′-[1,2,4]oxadiazol]-3′-amine]",10000 to 50000 nM
5,CN1OC2(N=C1N)c1cc(-c3cccc(C#N)c3)ccc1OC1(CCCOC1)C2F (stereo not drawn) [Compound 109],100 to 500 nM
6,CN1OC2(CC3(CCCOC3)Oc3ccc(-c4cccc(Cl)c4)cc32)N=C1N (stereo not drawn) [Compound 110],100 to 500 nM
7,CC1C2(CCCOC2)Oc2ccc(-c3cccc(C#N)c3)cc2C12N=C(N)N(C)O2 (stereo not drawn) [Compound 111],100 to 500 nM
8,CN1OC2(N=C1N)c1cc(-c3cccc(C#N)c3)ccc1OC1(CCCOC1)C2(F)F (stereo not drawn) [Compound 112],500 to 1000 nM
9,CN1O[C@@]2(C[C@]3(CCOC3)Oc3ccc(-c4cccc(C#N)c4)cc32)N=C1N [Compound 113b],500 to 1000 nM
10,CN1OC2(CC3(CCCCOC3)Oc3ccc(-c4cccc(C#N)c4)cc32)N=C1N (stereo not drawn) [Compound 114],500 to 1000 nM
11,CN1OC2(CC3(CCOCC3)Oc3ccc(-c4cccc(C#N)c4)cc32)N=C1N (stereo not drawn) [Compound 115],500 to 1000 nM
12,CN1OC2(CC3(CCCOCC3)Oc3ccc(-c4cccc(C#N)c4)cc32)N=C1N (stereo not drawn) [Compound 116],1000 to 5000 nM
13,CN1OC2(CC3(CCCOC3)Oc3ccc(-c4cccc(C#N)c4)cc32)N=C1N (stereo not drawn) [Compound 117],1000 to 5000 nM
14,"CN1OC2(CC3(CCCCC3)Oc3ccc(-c4cccc(C#N)c4)cc32)NC1=N (stereo not drawn) [Compound 118, 3-(3″-Imino-2″-methylspiro[spiro(chroman-2,1″-cyclohexane)-4,5′-[1,2,4]oxadiazolidine]-6-yl)benzonitrile]",1000 to 5000 nM
15,CN1OC2(CC3(CCCOC3)Oc3ccc(-c4cccc(F)c4)cc32)N=C1N (stereo not drawn) [Compound 119],1000 to 5000 nM
16,CCC1CCC2(C1)CC1(N=C(N)N(C)O1)c1cc(-c3cccc(C#N)c3)ccc1O2 (stereo not drawn) [Compound 120],1000 to 5000 nM
17,CC(C)C1CCC2(C1)CC1(N=C(N)N(C)O1)c1cc(-c3cccc(C#N)c3)ccc1O2 (stereo not drawn) [Compound 121],1000 to 5000 nM
18,CN1OC2(CC3(CCCOC3)Oc3ccc(C4CCCCC4)cc32)N=C1N (stereo not drawn) [Compound 122],1000 to 5000 nM
19,"CN1OC2(CC3(COC(C)(C)OC3)Oc3ccc(-c4cccc(C#N)c4)cc32)N=C1N (stereo not drawn) [Compound 123, 3-(3″-imino-2″-methylspiro[spiro(chroman-2,1′-(4,4-dimethyl-3,5-dioxane))-4,5″-[1,2,4]oxadiazolidine]-6-yl)benzonitrile]",5000 to 10000 nM

row,SMILES,IC50
1,CCOc1cccc(-c2ccc3c(c2)C2(CC4(CCCOC4)O3)N=C(N)N(C)O2)c1 (stereo not drawn) [Compound 124],5000 to 10000 nM
2,CC1CCC2(C1)CC1(N=C(N)N(C)O1)c1cc(-c3cccc(C#N)c3)ccc1O2 (stereo not drawn) [Compound 125],5000 to 10000 nM
3,CCCOc1cccc(-c2ccc3c(c2)C2(CC4(CCCOC4)O3)N=C(N)N(C)O2)c1 (stereo not drawn) [Compound 126],5000 to 10000 nM
4,CN1O[C@@]2(C[C@@]3(CCC(C(C)(C)C)C3)Oc3ccc(-c4cccc(C#N)c4)cc32)N=C1N (stereo partly drawn) [Compound 127a],5000 to 10000 nM
5,CN1O[C@@]2(C[C@]3(CCC(C(C)(C)C)C3)Oc3ccc(-c4cccc(C#N)c4)cc32)N=C1N (stereo partly drawn) [Compound 127b],5000 to 10000 nM
6,COCCCOc1cccc(-c2ccc3c(c2)C2(CC4(CCCOC4)O3)N=C(N)N(C)O2)c1 (stereo not drawn) [Compound 128],10000 to 50000 nM
7,COCCOc1cccc(-c2ccc3c(c2)C2(CC4(CCCOC4)O3)N=C(N)N(C)O2)c1 (stereo not drawn) [Compound 129],10000 to 50000 nM
8,CN1OC2(CC3(CCCOC3)Oc3ccc(Oc4ccccc4)cc32)N=C1N (stereo not drawn) [Compound 130],10000 to 50000 nM
9,CN1C(=O)[C@@]2(C[C@@]3(CCCOC3)Oc3ccc(-c4cc(Cl)cc(Cl)c4)cc32)N=C1N [Compound 281],100 to 500 nM
10,CN1C(=O)C2(CC(C3CCOC(C)(C)C3)Oc3ccc(-c4cc(C#N)ccc4C(F)(F)F)cc32)N=C1N (stereo not drawn) [Compound 284],100 to 500 nM
11,CN1O[C@@]2(C[C@@H]([C@@H]3CCOC(C)(C)C3)Oc3ccc(-c4cccc(C#N)c4)cc32)N=C1N [Compound 285],100 to 500 nM
12,CN1C(=O)[C@@]2(C[C@@]3(CCCOC3)Oc3ccc(-c4cccc(Cl)c4)cc32)N=C1N [Compound 289],100 to 500 nM
13,CN1C(=O)C2(CC3(CCCOC3)Oc3ccc(-c4cccc(C#N)c4F)cc32)N=C1N (stereo not drawn) [Compound 291],100 to 500 nM
14,Cc1ccc(C#N)cc1-c1ccc2c(c1)C1(CC(C3CCOC(C)(C)C3)O2)N=C(N)N(C)O1 (stereo not drawn) [Compound 292],100 to 500 nM
15,CSc1cccc(-c2ccc3c(c2)[C@]2(C[C@]4(CCCOC4)O3)N=C(N)N(C)C2=O)c1 [Compound 296],100 to 500 nM
16,CN1C(=O)C2(CC(C3CCOC(C)(C)C3)Oc3ccc(-c4cc(F)ccc4F)cc32)N=C1N (stereo not drawn) [Compound 300],100 to 500 nM
17,Cc1cccc(-c2ccc3c(c2)C2(CC4(CCCOC4)O3)N=C(N)N(C)C2=O)c1 (stereo not drawn) [Compound 301],100 to 500 nM
18,CN1C(=O)[C@@]2(C[C@@]3(CCCOC3)Oc3ccc(-c4cc(C#N)cc(C(F)(F)F)c4)cc32)N=C1N [Compound 304],100 to 500 nM
19,COc1ccc(OC)c(-c2ccc3c(c2)[C@]2(C[C@]4(CCCOC4)O3)N=C(N)N(C)C2=O)c1 [Compound 307],100 to 500 nM
